Results published in ChEMBL document CHEMBL4602687, “Dual Binding to Orthosteric and Allosteric Sites Enhances the Anticancer Activity of a TRAP1-Targeting Drug” (J Med Chem, 2020).
Changes are numbered by the printed parent chain. The source made the active and inactive calls. The rule behind the calls is not given here.

Key:
[1] = biological target: T1, Heat shock protein 75 kDa, mitochondrial (Homo sapiens) (UniProt Q12931); experiment: Inhibition of recombinant wild-type human TRAP1 expressed in Escherichia coli BL21 (DE3) assessed as intrinsic fluorescence quenching of tryptophan residues at 10 uM measured after 1 hr by fluorescence spectrophotometric method
T1 sequence (whole entry): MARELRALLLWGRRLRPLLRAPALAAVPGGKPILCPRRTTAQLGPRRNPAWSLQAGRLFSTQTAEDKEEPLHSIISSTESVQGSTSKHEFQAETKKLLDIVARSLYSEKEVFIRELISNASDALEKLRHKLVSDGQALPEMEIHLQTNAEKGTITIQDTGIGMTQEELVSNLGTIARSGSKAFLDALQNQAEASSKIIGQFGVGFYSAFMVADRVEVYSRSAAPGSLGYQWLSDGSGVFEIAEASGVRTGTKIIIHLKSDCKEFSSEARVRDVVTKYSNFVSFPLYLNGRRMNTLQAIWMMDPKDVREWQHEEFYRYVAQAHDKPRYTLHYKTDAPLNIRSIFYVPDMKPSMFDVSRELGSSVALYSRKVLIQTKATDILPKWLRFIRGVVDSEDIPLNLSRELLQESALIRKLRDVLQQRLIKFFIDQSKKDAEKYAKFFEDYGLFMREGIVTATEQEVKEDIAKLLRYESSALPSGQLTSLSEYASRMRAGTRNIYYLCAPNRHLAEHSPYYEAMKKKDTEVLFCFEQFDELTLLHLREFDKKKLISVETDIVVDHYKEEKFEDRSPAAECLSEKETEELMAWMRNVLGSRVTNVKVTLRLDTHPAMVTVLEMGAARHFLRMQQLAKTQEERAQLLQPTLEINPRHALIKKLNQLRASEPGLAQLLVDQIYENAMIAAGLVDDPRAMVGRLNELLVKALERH

[2] = biological target: T1, Heat shock protein 75 kDa, mitochondrial (Homo sapiens); experiment: Stimulation of recombinant wild-type human TRAP1 ATPase activity expressed in Escherichia coli BL21 (DE3) at 2 to 5 uM preincubated for 0.5 hrs followed by 0.2 mM ATP addition and measured after 3 hrs by PiColorLock Gold reagent based colorimetric assay relative to control
Mus musculus [3] = experiment: In vivo inhibition of TRAP1 in nude mouse xenografted with human NCI-H460 cells assessed as increase in SIRT3 degradation at 5 mg/kg, ip administered daily by Western blot analysis; type: functional, organism-based
Mus musculus [4] = experiment: In vivo inhibition of TRAP1 in nude mouse xenografted with human NCI-H460 cells assessed as increase in SDHB degradation at 5 mg/kg, ip administered daily by Western blot analysis; type: functional, organism-based
HeLa = experiment: Cytotoxicity against human HeLa cells assessed as reduction in cell viability up to 3 uM measured after 24 hrs by MTT assay; type: functional, cell-based
[5] = system: T2, Heat shock protein 75 kDa, mitochondrial (Homo sapiens), Q12931 [R114E]; experiment: Stimulation of recombinant […] human TRAP1 R114E mutant ATPase activity expressed in Escherichia coli BL21 (DE3) up to 20 uM preincubated for 0.5 hrs followed by ATP addition and measured after 3 hrs by PiColorLock Gold reagent based colorimetric assay
T2 sequence (whole entry): T1 sequence (whole entry) with R114E

[6] = system: T3, Heat shock protein 75 kDa, mitochondrial (Homo sapiens), Q12931 [R402Q]; experiment: Stimulation of recombinant […] human TRAP1 R402Q mutant ATPase activity expressed in Escherichia coli BL21 (DE3) up to 20 uM preincubated for 0.5 hrs followed by ATP addition and measured after 3 hrs by PiColorLock Gold reagent based colorimetric assay
T3 sequence (whole entry): T1 sequence (whole entry) with R402Q

NCI-H460 = experiment: Cytotoxicity against human NCI-H460 cells assessed as reduction in cell viability up to 3 uM measured after 24 hrs by MTT assay; type: functional, cell-based
[7] = biological target: T1, Heat shock protein 75 kDa, mitochondrial (Homo sapiens); experiment: Inhibition of TRAP1 in human PC3 cells assessed as reduction in ATP concentration at 10 uM measured after 2 hrs; type: cell-based; conditions: PC-3
[8] = biological target: T1, Heat shock protein 75 kDa, mitochondrial (Homo sapiens); experiment: Inhibition of recombinant wild-type human TRAP1 chaperone activity expressed in Escherichia coli BL21 (DE3) at 5 uM preincubated for 30 mins followed by denatured luciferase and ATP addition by luciferase refolding assay

Compound: Nc1ncnc2c1nc(Sc1cc3c(cc1I)OCO3)n2CCCCCCCCCC[P+](c1ccccc1)(c1ccccc1)c1ccccc1
- inhibition [1]: Active
- fold change (FC) [2]: 1.2
- inhibition (Mus musculus [3]): Active
- inhibition (Mus musculus [4]): Active
- Activity (HeLa): Active
- Activity [5]: Active
- Activity [6]: Active
- Activity (NCI-H460): Active
- inhibition [7]: Active
- inhibition [8]: Active
